Measured values published in ChEMBL document CHEMBL4118154, “Discovery of evocalcet, a next-generation calcium-sensing receptor agonist for the treatment of hyperparathyroidism” (Bioorg Med Chem Lett, 2018).
Calls of active or inactive are those of the source. The rule behind the calls is not given here.

Columns and labels:
[1] = Intrinsic clearance in rat liver microsomes assessed per protein; type: ADME, microsome; details: read-out: CLH
[2] = target: T1, CYP2A6 (Homo sapiens, UniProt P11509); assay: Inhibition of CYP2A6 (unknown origin); type: ADME
T1 sequence (P11509 whole entry): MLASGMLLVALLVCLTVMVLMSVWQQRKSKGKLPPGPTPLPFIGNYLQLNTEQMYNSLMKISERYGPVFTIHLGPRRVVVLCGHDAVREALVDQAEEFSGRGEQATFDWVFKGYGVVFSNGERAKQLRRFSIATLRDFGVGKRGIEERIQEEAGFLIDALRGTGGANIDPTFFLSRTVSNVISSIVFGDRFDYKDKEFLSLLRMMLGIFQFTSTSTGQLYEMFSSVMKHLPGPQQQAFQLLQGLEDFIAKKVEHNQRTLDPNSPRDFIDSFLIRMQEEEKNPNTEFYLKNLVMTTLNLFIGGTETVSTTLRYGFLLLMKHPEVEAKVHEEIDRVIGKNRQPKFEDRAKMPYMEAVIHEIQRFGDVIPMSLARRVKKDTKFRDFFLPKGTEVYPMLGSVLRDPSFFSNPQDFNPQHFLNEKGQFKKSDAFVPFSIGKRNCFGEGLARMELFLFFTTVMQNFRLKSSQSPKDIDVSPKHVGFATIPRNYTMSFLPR

[3] = target: T2, Extracellular calcium-sensing receptor (Homo sapiens) (UniProt P41180); assay: Binding affinity to human CaSR expressed in HEK293 cells after 30 mins in presence of NPS 568 by liquid scintillation counting method; type: cell-based
T2 sequence (whole entry): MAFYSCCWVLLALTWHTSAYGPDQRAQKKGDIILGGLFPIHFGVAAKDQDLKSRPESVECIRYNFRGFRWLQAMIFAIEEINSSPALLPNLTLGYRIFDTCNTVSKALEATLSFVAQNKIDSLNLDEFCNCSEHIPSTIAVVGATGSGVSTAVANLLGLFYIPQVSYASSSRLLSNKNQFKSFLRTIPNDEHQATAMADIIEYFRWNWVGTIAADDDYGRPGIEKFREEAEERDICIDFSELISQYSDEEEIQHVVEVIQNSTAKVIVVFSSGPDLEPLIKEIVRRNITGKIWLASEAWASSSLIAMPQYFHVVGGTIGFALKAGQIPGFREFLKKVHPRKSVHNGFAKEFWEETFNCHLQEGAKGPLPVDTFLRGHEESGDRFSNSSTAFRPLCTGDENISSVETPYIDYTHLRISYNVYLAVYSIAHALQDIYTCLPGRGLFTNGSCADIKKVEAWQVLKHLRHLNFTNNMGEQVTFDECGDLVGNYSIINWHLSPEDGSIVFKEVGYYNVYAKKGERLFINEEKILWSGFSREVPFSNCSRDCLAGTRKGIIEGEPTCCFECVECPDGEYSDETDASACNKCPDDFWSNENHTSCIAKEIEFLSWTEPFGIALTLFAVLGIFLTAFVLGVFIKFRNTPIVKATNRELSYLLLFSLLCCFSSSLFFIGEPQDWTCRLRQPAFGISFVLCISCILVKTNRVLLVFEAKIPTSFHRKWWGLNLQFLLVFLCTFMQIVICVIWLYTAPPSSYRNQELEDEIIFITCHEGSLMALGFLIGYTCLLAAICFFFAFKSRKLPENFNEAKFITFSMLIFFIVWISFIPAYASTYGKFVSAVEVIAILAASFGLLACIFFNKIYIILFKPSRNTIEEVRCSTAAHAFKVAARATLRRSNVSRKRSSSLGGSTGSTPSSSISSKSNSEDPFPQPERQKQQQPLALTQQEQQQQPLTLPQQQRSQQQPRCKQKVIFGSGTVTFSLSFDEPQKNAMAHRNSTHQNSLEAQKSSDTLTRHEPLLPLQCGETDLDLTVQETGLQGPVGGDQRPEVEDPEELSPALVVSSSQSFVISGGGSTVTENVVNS

[4] = target: CYP3A4/5 (Homo sapiens, UniProt P08684+P20815); assay: Inhibition of CYP3A4/5 (unknown origin); type: ADME, protein assay
[5] = target: T3, CYP1A2 (Homo sapiens, UniProt P05177); assay: Inhibition of CYP1A2 (unknown origin); type: ADME
T3 sequence (P05177 whole entry): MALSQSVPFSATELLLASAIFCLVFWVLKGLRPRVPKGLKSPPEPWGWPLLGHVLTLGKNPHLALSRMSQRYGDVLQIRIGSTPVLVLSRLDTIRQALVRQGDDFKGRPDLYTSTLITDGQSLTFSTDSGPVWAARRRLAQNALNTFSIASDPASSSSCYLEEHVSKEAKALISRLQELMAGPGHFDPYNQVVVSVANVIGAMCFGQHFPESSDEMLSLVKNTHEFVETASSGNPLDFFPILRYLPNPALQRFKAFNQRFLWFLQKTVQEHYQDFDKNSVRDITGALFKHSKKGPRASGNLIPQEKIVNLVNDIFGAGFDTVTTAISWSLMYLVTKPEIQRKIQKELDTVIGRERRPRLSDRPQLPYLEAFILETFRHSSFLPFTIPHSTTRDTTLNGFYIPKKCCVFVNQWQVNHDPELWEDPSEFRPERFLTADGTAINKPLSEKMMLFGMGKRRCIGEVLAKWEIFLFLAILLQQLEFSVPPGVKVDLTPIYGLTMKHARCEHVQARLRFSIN

- microsomal CLint [1]: 34 µL/min/mg
- IC50 [2]: > 50 µM
- Activity [3]: inactive
- IC50 [4]: > 50 µM
- IC50 [5]: > 50 µM
Compound: C[C@@H](N[C@H]1CCN(c2ccc(CC(=O)O)cc2)C1)c1cccc2ccccc12.Cl.Cl
